Reference: PMC7993375, “Discovery of novel quinoline-based analogues of combretastatin A-4 as tubulin polymerisation inhibitors with apoptosis inducing activity and potent anticancer effect” (Journal of Enzyme Inhibition and Medicinal Chemistry, 2021)

Tests used:
MCF-7 = experiment: MTT cell viability assay, MCF-7 breast adenocarcinoma cells; format: cell-based; conditions: Homo sapiens, MCF7, 72 h, read-out: IC50 value, MCF-7
Experimental: (§1) The four human tumour cell lines MCF-7, HCT-116, HL-60 and HeLa used in this study were obtained from the VACSERA (Giza, Egypt) cell culture unit that were originally acquired from ATCC (Manassas, VA, USA). All the human tumour cell lines were cultured in Dulbecco’s Modified Eagle’s Medium (DMEM) with 10% foetal bovine serum, 2 mM L-glutamine and 100 µg/mL penicillin/streptomycin. Cells were maintained at 37 °C in 5% CO2 in a humidified incubator. All cells were sub-cultured 3 times/week by trypsinisation using TrypLE Express (1X).
(§2) The quinoline compounds were evaluated for antiproliferative effect using the MTT viability assay of four cancer cell lines (MCF-7, HCT-116, HL-60 and HeLa) and normal breast cells MCF-10A to calculate the relative IC50 values for each compound. Cells were seeded in triplicate in 96-well plates at a density of 10 × 10^3 cells/ml in a total volume of 200 µl per well. 0.1% of DMSO was used as a vehicle control. Following, the cells were treated with 2 µl test compound (from stock solutions in ethanol) to furnish the concentration range of study, 1 nM to 50 µM, and re-incubated for a further 72 h. The culture medium was then removed, and the cells washed with 100 µL phosphate buffered saline (PBS) and 50 µL MTT added, to reach a final concentration of 1 mg/mL. Cells were incubated for 2 h in darkness at 37 °C. Solubilisation was begun through the addition of […] DMSO, and the cells maintained at room temperature in darkness for 20 min to ensure thorough colour diffusion before reading the absorbance. Plates were incubated for 72 h at 37 °C + 5% CO2. The MTT (5 mg/mL in PBS) was added and incubated for another 4 h, and the optical density was detected with a microplate reader at 570 nm. Results were expressed as percentage viability relative to vehicle control (100%). Dose response curves were plotted and IC50 values (concentration of drug resulting in 50% reduction in cell survival) were obtained using the commercial software package Prism (GraphPad Software, Inc., La Jolla, CA, USA). All the experiments were repeated in at least three independent experiments.

bovine brain tubulin = experiment: Tubulin polymerisation assay; format: biochemical; conditions: for IC50: Tubulin was at 10 µM, read-out: Tubulin assembly IC50 (inhibition of tubulin polymerisation)
Experimental: The assembly of purified bovine tubulin was monitored using a kit, BK006, purchased from Cytoskeleton Inc., (Denver, CO, USA). The assay was carried out in accordance with the manufacturer’s instructions using the standard assay conditions. Briefly, purified ([…]) in a buffer consisting of 80 mM PIPES (pH 6.9), 0.5 mM EGTA, 2 mM MgCl2, 1 mM GTP and 10% glycerol was incubated at 37 °C in the presence of either vehicle (2% (v/v) ddH2O), CA-4, or the quinoline compounds. Light is scattered proportionally to the concentration of polymerised microtubules in the assay. Therefore, tubulin assembly was monitored turbidimetrically at 340 nm in a Spectramax 340 PC spectrophotometer (Molecular Devices, Sunnyvale, CA, USA). The concentration that inhibits tubulin polymerisation by 50% (IC50) was determined using area under the curve (AUC). The AUC of the untreated controls were considered as 100% polymerisation. The IC50 value for each compound was computed using GraphPad Prism Software.

HeLa = experiment: MTT cell viability assay, HeLa cervical adenocarcinoma cells; format: cell-based; conditions: Homo sapiens, 72 h
Experimental: as §1, §2

HL-60 = experiment: MTT cell viability assay, HL-60 leukaemia cells; format: cell-based; conditions: Homo sapiens, 72 h, read-out: IC50 value, HL-60
Experimental: as §1, §2

HCT-116 = experiment: MTT cell viability assay, HCT-116 colorectal carcinoma cells; format: cell-based; conditions: Homo sapiens, 72 h
Experimental: as §1, §2

[1] = test system: MCF-7, HL-60, HCT-116 and HeLa; experiment: MTT cell viability assay, statements over all four cancer cell lines; format: cell-based, human
Experimental: as §1, §2

| SMILES | IC50 (MCF-7) | IC50 (bovine brain tubulin) | IC50 (HeLa) | melting point | IC50 (HL-60) | IC50 (HCT-116) | IC50 ([1]; Homo sapiens) | IC50 over all four cancer cell lines [1] | fold less active than CA-4 (tubulin assembly) (bovine brain tubulin) | fold less active than 12c (tubulin polymerisation) (bovine brain tubulin) |
| --- | --- | --- | --- | --- | --- | --- | --- | --- | --- | --- |
| COc1cc(C2=NC(=Cc3cc4ccccc4nc3OC)C(=O)O2)cc(OC)c1OC [Compound 12a, 4-[(2-Methoxyquinolin-3-yl)methylene]-2–(3,4,5-trimethoxyphenyl)oxazol-5(4H)-one] | 1710 ± 40 nM | 14000 nM | 2110 ± 34 nM | 215 to 217 °C | 3309 ± 22 nM | 2010 ± 80 nM |  |  | 6 fold |  |
| COc1cc(C2=NC(=Cc3cc4cc(C)ccc4nc3OC)C(=O)O2)cc(OC)c1OC [Compound 12b, 4-[(2-Methoxy-6-methylquinolin-3-yl)methylene]-2–(3,4,5-trimethoxyphenyl) oxazol-5(4H)-one] | 132 ± 13 nM |  | 117 ± 85 nM | 218 to 220 °C | 197 ± 41 nM | 184 ± 7 nM |  |  |  |  |
| COc1cc(C2=NC(=Cc3cc4cccc(C)c4nc3OC)C(=O)O2)cc(OC)c1OC [Compound 12d, 4-[(2-Methoxy-8-methylquinolin-3-yl)methylene]-2–(3,4,5-trimethoxyphenyl) oxazol-5(4H)-one] | 154 ± 71 nM |  | 153 ± 83 nM | 236 to 238 °C | 268 ± 93 nM | 191 ± 1 nM |  |  |  |  |
| COc1ccc2nc(OC)c(/C=C3\N=C(c4cc(OC)c(OC)c(OC)c4)OC3=O)cc2c1 [Compound 12e] | 56 ± 27 nM | 2260 nM | 10 ± 4 nM | 242 to 244 °C | 68 ± 34 nM | 31 ± 1 nM |  |  |  |  |
| COc1ccc2cc(C=C3N=C(c4cc(OC)c(OC)c(OC)c4)OC3=O)c(OC)nc2c1 [Compound 12f, 4-[(2,7-Dimethoxyquinolin-3-yl)methylene]-2–(3,4,5-trimethoxyphenyl)oxazol-5(4H)-one] | 52 ± 2.1 nM |  | 138 ± 26 nM | 221 to 223 °C | 352 ± 21 nM | 66 ± 5 nM |  |  |  |  |
| COc1cc(C2=NC(=Cc3cc4ccc(OC(C)C)cc4nc3OC)C(=O)O2)cc(OC)c1OC [Compound 12g, 4-[(7-Isopropoxy-2-methoxyquinolin-3-yl)methylene]-2–(3,4,5-trimethoxyphenyl)oxazol-5(4H)-one] | 1510 ± 220 nM | 8230 nM | 1750 ± 500 nM | 227 to 229 °C | 1820 ± 640 nM | 7880 ± 300 nM |  |  | 4 fold |  |
| COc1cc(C2=NC(=Cc3cc4ccc(OCc5ccccc5)cc4nc3OC)C(=O)O2)cc(OC)c1OC [Compound 12h, 4-[(7-(Benzyloxy)-2-methoxyquinolin-3-yl)methylene]-2–(3,4,5-trimethoxyphenyl)oxazol-5(4H)-one] | 1930 ± 612 nM |  | 1050 ± 840 nM | 247 to 249 °C | 4660 ± 260 nM | 1560 ± 720 nM |  |  |  |  |

Continued, in another order:

| IC50 (MCF-7) | IC50 (bovine brain tubulin) | IC50 (HeLa) | melting point | IC50 (HL-60) | IC50 (HCT-116) | IC50 ([1]; Homo sapiens) | IC50 over all four cancer cell lines [1] | SMILES | fold less active than CA-4 (tubulin assembly) (bovine brain tubulin) | fold less active than 12c (tubulin polymerisation) (bovine brain tubulin) |
| --- | --- | --- | --- | --- | --- | --- | --- | --- | --- | --- |
| 1030 ± 55 nM |  | 1410 ± 96 nM | 230 to 232 °C | 1560 ± 55 nM | 8210 ± 7.7 nM | > 1000 nM |  | COc1cc(C2=NC(=Cc3cc4ccccc4nc3OC)C(=O)N2)cc(OC)c1OC [Compound 13a, 5-[(2-Methoxyquinolin-3-yl)methylene]-2–(3,4,5-trimethoxyphenyl)-3,5-dihydro-4H-imidazol-4-one] |  |  |
| 63 ± 1.1 nM |  | 188 ± 13 nM | 223 to 225 °C | 240 ± 12 nM | 173 ± 25 nM |  | submicromolar | COc1cc(C2=NC(=Cc3cc4cc(C)ccc4nc3OC)C(=O)N2)cc(OC)c1OC [Compound 13b, 5-[(2-Methoxy-6-methylquinolin-3-yl)methylene]-2–(3,4,5-trimethoxyphenyl)-3,5-dihydro-4H-imidazol-4-one] |  |  |
| 223 ± 56 nM | 20300 nM | 733 ± 91 nM | 236 to 238 °C | 661 ± 26 nM | 284 ± 83 nM |  | submicromolar | COc1cc(C2=NC(=Cc3cc4ccc(C)cc4nc3OC)C(=O)N2)cc(OC)c1OC [Compound 13c, 5-[(2-Methoxy-7-methylquinolin-3-yl)methylene]-2–(3,4,5-trimethoxyphenyl)-3,5-dihydro-4H-imidazol-4-one] |  | 16 fold |
| 137 ± 23 nM |  | 126 ± 44 nM | 233 to 235 °C | 96 ± 6 nM | 109 ± 11 nM |  | submicromolar | COc1cc(C2=NC(=Cc3cc4cccc(C)c4nc3OC)C(=O)N2)cc(OC)c1OC [Compound 13d, 5-[(2-Methoxy-8-methylquinolin-3-yl)methylene]-2–(3,4,5-trimethoxyphenyl)-3,5-dihydro-4H-imidazol-4-one] |  |  |
| 42 ± 2.5 nM | 1480 nM | 62 ± 3 nM | 253 to 255 °C | 272 ± 50 nM | 85 ± 3 nM |  |  | COc1ccc2nc(OC)c(C=C3N=C(c4cc(OC)c(OC)c(OC)c4)NC3=O)cc2c1 [Compound 13e, 5-[(2,6-Dimethoxyquinolin-3-yl)methylene]-2–(3,4,5-trimethoxyphenyl)-3,5-dihydro-4H-imidazol-4-one] |  |  |
| 92 ± 6.2 nM |  | 101 ± 90 nM | 241 to 243 °C | 210 ± 98 nM | 187 ± 9 nM |  |  | COc1ccc2cc(C=C3N=C(c4cc(OC)c(OC)c(OC)c4)NC3=O)c(OC)nc2c1 [Compound 13f, 5-[(2,7-Dimethoxyquinolin-3-yl)methylene]-2–(3,4,5-trimethoxyphenyl)-3,5-dihydro-4H-imidazol-4-one] |  |  |
| 5560 ± 133 nM |  | 4440 ± 600 nM | 238 to 240 °C | 5110 ± 410 nM | 1620 ± 950 nM |  |  | COc1cc(C2=NC(=Cc3cc4ccc(OC(C)C)cc4nc3OC)C(=O)N2)cc(OC)c1OC [Compound 13g, 5-((7-Isopropoxy-2-methoxyquinolin-3-yl)methylene)-2–(3,4,5-trimethoxyphenyl)-3,5-dihydro-4H-imidazol-4-one] |  |  |
| 1700 ± 821 nM |  | 2070 ± 390 nM | 259 to 261 °C | 4930 ± 260 nM | 2610 ± 430 nM |  |  | COc1cc(C2=NC(=Cc3cc4ccc(OCc5ccccc5)cc4nc3OC)C(=O)N2)cc(OC)c1OC [Compound 13h, 5-[(7-(Benzyloxy)-2-methoxyquinolin-3-yl)methylene]-2–(3,4,5-trimethoxyphenyl)-3,5-dihydro-4H-imidazol-4-one] |  |  |
